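1) Cells in 96-well plates. 2) Compound, 48 h, 5 concentrations. 3) Linear interpolation between surrounding doses. 4) Unreached endpoint = highest concentration. Here, GI50 denotes the concentration required for 50% inhibition of growth. Definition used: TGI = concentration required for complete inhibition of growth.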

Some test systems named below: A549 NSCLC; HCT-15 colon; HOP-62 NSCLC; M14 melanoma; NCI-H460 lung; NCI/ADR-RES ovarian; OVCAR-8 ovarian; RPMI-8226 leukemia; SF-268 CNS; SK-MEL-2 melanoma.
Common to all, as to assay: inhibition of tumour cell growth, NCI panel, 48 h

As to `CC/C(=C(/c1ccc(OCCN(C)C)cc1)c1ccc(OC(=O)CCCCC(=O)c2c(C)[nH]c(/C=C3\N=C(c4ccc[nH]4)C=C3OC)c2C)cc1)c1ccccc1`, the GI50 in the test on A549 NSCLC was 3.92 µM; with HCT-15 colon, 4.44 µM; in the test with HOP-62 NSCLC, 12.3 µM; in the test with M14 melanoma, 1.84 µM; in the test with NCI-H460 lung, 3.99 µM; in the test with NCI/ADR-RES ovarian, 12.6 µM. For the same compound, the GI50 in the test with OVCAR-8 ovarian was 6.55 µM; in the test on RPMI-8226 leukemia it was 3.17 µM; in the test with SF-268 CNS, 7.79 µM; with SK-MEL-2 melanoma it was 16.7 µM. The TGI in the test on A549 NSCLC was 15.7 µM; in the test with HCT-15 colon, 28.5 µM; in the test on HOP-62 NSCLC, 24.7 µM; in the test with M14 melanoma, 4 µM; with NCI-H460 lung it was 15.5 µM; in the test on NCI/ADR-RES ovarian, 46.8 µM. Also, the TGI in the test on OVCAR-8 ovarian was determined as 19.9 µM; with RPMI-8226 leukemia, 18.8 µM; in the test on SF-268 CNS it was 30 µM; in the test with SK-MEL-2 melanoma, 33.5 µM.

Take `O=C(Nc1ccc(OS(=O)(=O)c2ccccc2)cc1)C12CC3CC(CC(C3)C1)C2`: the GI50 in the test on A549 NSCLC was 6.9 µM; with HCT-15 colon it was 0.997 µM; in the test with HOP-62 NSCLC it was above 100 µM; in the test with M14 melanoma it was 7.2 µM; in the test on NCI-H460 lung, 6.1 µM; in the test on NCI/ADR-RES ovarian, 5.75 µM. Besides, the GI50 in the test on OVCAR-8 ovarian was above 100 µM; in the test on RPMI-8226 leukemia, 2.15 µM; with SF-268 CNS, above 100 µM; in the test with SK-MEL-2 melanoma, above 100 µM. The TGI in the test with A549 NSCLC, in the test with HCT-15 colon, in the test with HOP-62 NSCLC, in the test on M14 melanoma, in the test with NCI-H460 lung and in the test on NCI/ADR-RES ovarian was above 100 µM throughout. For the same compound, the TGI in the test on OVCAR-8 ovarian, with RPMI-8226 leukemia, with SF-268 CNS and with SK-MEL-2 melanoma was above 100 µM in each case.

In the case of `C=C(C)C(CC=C(C)C)CC12CC(CC=C(C)C)C(C)(C)C(CC=C(C)C)(C(=O)C(Cc3ccc(O)c(O)c3)=C1O)C2=O` (centres undefined), the TGI with A549 NSCLC, with HCT-15 colon, in the test on HOP-62 NSCLC, with M14 melanoma, in the test on NCI-H460 lung and in the test with NCI/ADR-RES ovarian was above 100 µM in each case. For the same compound, the TGI in the test with OVCAR-8 ovarian, in the test with RPMI-8226 leukemia and in the test with SF-268 CNS was above 100 µM in each case.

As to `O=C1NC(=Nc2ccccc2)S/C1=C\c1ccc2ncccc2c1`, the GI50 with A549 NSCLC is above 7.12 µM; with HCT-15 colon, 1.1 µM; with HOP-62 NSCLC, 4.46 µM; in the test on M14 melanoma, above 25 µM; with NCI-H460 lung it was above 6.82 µM; with NCI/ADR-RES ovarian, above 6.88 µM. For the same compound, the GI50 with OVCAR-8 ovarian is above 25 µM; with SF-268 CNS it was above 10.3 µM; with SK-MEL-2 melanoma, above 17.9 µM. Also, the TGI in the test with A549 NSCLC, in the test on HCT-15 colon, with HOP-62 NSCLC, in the test on M14 melanoma, with NCI-H460 lung and in the test with NCI/ADR-RES ovarian was above 25 µM in each case. For the same compound, the TGI with OVCAR-8 ovarian, in the test on RPMI-8226 leukemia, in the test on SF-268 CNS and in the test on SK-MEL-2 melanoma was above 25 µM throughout.

With `Ic1ccc(Nc2nc3nonc3nc2Nc2ccc(I)cc2)cc1`, the GI50 is 0.282 µM in the test on A549 NSCLC; 0.144 µM in the test with HCT-15 colon; 0.302 µM with HOP-62 NSCLC; 0.156 µM in the test on NCI-H460 lung; 0.313 µM in the test on NCI/ADR-RES ovarian; 0.351 µM in the test with OVCAR-8 ovarian. Besides, the GI50 was 0.107 µM in the test with RPMI-8226 leukemia, 0.304 µM in the test with SF-268 CNS and 0.143 µM in the test with SK-MEL-2 melanoma. In addition, the TGI is above 100 µM with A549 NSCLC; above 100 µM in the test on HCT-15 colon; 0.961 µM with HOP-62 NSCLC; above 32 µM with NCI-H460 lung; above 100 µM in the test on NCI/ADR-RES ovarian; above 100 µM with OVCAR-8 ovarian. Further, the TGI was 0.574 µM in the test with RPMI-8226 leukemia, above 100 µM in the test on SF-268 CNS and 0.692 µM with SK-MEL-2 melanoma.

With `CCn1c(-c2cc(OC)cc(OC)c2)nc2c1C(=O)c1ccccc1C2=O`, the TGI in the test with A549 NSCLC, in the test with HCT-15 colon, with HOP-62 NSCLC, with M14 melanoma, in the test on NCI-H460 lung and with NCI/ADR-RES ovarian was above 100 µM throughout. The TGI in the test with OVCAR-8 ovarian, in the test on RPMI-8226 leukemia and with SF-268 CNS was above 100 µM each time.

On to `C[C@H]1c2cccc(O)c2C(O)=C2C(=O)[C@]3(O)C(O)=C(C(N)=O)C(=O)[C@@H](N(C)C)[C@@H]3[C@@H](O)[C@@H]21`, for which the GI50 is 3.22 µM with A549 NSCLC; 3.46 µM in the test with HCT-15 colon; 2.76 µM in the test with HOP-62 NSCLC; 3.28 µM with M14 melanoma; 2.96 µM in the test with NCI-H460 lung; 6.18 µM with NCI/ADR-RES ovarian. Further, the GI50 in the test with OVCAR-8 ovarian is 3.29 µM; in the test with SF-268 CNS, 3.33 µM; in the test on SK-MEL-2 melanoma, 3.13 µM. Further, the TGI turned out to be 13.2 µM in the test on A549 NSCLC; 16 µM in the test with HCT-15 colon; 10.8 µM with HOP-62 NSCLC; 12.6 µM with M14 melanoma; 10.2 µM in the test on NCI-H460 lung; 85.3 µM in the test on NCI/ADR-RES ovarian. Moreover, the results for the TGI with OVCAR-8 ovarian, in the test with SF-268 CNS and in the test on SK-MEL-2 melanoma were 14.7 µM, 12.1 µM and 8.99 µM, respectively.

Regarding `CC(C)(C)OC(=O)NCC(O)CNC(=O)OC(C)(C)C`, the TGI with A549 NSCLC, in the test with HCT-15 colon, in the test on HOP-62 NSCLC, in the test with M14 melanoma, in the test on NCI-H460 lung and with NCI/ADR-RES ovarian was above 100 µM each time. The TGI with OVCAR-8 ovarian, in the test with RPMI-8226 leukemia and with SF-268 CNS was above 100 µM each time.

`Cc1nc2ccccc2c(=O)n1NC(=O)c1ccc(CS)cc1`: the TGI is 64.5 µM with A549 NSCLC; above 100 µM in the test on HCT-15 colon; 42.4 µM in the test with HOP-62 NSCLC; 34.2 µM in the test with M14 melanoma; 60.4 µM in the test on NCI-H460 lung; above 100 µM in the test on NCI/ADR-RES ovarian. Besides, the TGI in the test with OVCAR-8 ovarian was above 100 µM; with RPMI-8226 leukemia, above 100 µM; in the test with SF-268 CNS, 52 µM.

With `C=CC1CC12C(=O)C1OC2(C)C2C(=O)c3cc4ccccc4cc3C(=O)C12` (centres undefined), the GI50 in the test on A549 NSCLC is 38.3 µM; with HCT-15 colon it was 11.9 µM; in the test with HOP-62 NSCLC, 75.9 µM; with M14 melanoma, 37.8 µM; in the test on NCI-H460 lung, 26.9 µM; with NCI/ADR-RES ovarian it was 26.9 µM. For the same compound, the GI50 in the test with OVCAR-8 ovarian is 24.2 µM; in the test on SF-268 CNS, 26.7 µM; in the test with SK-MEL-2 melanoma it was 45.8 µM. Also, the TGI was above 100 µM in the test on A549 NSCLC; 42.7 µM with HCT-15 colon; above 100 µM in the test with HOP-62 NSCLC; above 100 µM in the test with M14 melanoma; above 100 µM in the test on NCI-H460 lung; 95.4 µM in the test on NCI/ADR-RES ovarian. Also, the TGI is 92.3 µM with OVCAR-8 ovarian, above 100 µM in the test on SF-268 CNS and above 100 µM with SK-MEL-2 melanoma.

Values taken from PubChem BioAssay (NCI).
